Eight compounds from PMC12136037, “Type II kinase inhibitors that target Parkinson’s disease–associated LRRK2” (Science Advances, 2025) can be followed below.

Holding throughout (assay): DSF 100 kinase selectivity screen;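 further: compound tested at 20 µM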
What all share (format): binding

The target in test [1] is T1, ~100 representative kinases (Homo sapiens, UniProt O96013).
T1 construct: Recombinant protein kinase domains with a concentration of 2 μM
As to conditions: protein PAK4; average of three replicates. An outline of the steps:
(§1)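 Each kinase domain, at 2 μM, is mixed with 20 μM test compound and SYPRO Orange in Hepes (20 mM, pH 7.5) with 500 mM NaCl. Temperature is then raised at 3°C/min and fluorescence-monitored unfolding yields the melting temperature change, ΔTm in degrees Celsius.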

For test [2], the target named is T2, ~100 representative kinases (Homo sapiens, UniProt P29317).
T2 construct: Recombinant protein kinase domains with a concentration of 2 μM
T2 sequence (P29317 24-976): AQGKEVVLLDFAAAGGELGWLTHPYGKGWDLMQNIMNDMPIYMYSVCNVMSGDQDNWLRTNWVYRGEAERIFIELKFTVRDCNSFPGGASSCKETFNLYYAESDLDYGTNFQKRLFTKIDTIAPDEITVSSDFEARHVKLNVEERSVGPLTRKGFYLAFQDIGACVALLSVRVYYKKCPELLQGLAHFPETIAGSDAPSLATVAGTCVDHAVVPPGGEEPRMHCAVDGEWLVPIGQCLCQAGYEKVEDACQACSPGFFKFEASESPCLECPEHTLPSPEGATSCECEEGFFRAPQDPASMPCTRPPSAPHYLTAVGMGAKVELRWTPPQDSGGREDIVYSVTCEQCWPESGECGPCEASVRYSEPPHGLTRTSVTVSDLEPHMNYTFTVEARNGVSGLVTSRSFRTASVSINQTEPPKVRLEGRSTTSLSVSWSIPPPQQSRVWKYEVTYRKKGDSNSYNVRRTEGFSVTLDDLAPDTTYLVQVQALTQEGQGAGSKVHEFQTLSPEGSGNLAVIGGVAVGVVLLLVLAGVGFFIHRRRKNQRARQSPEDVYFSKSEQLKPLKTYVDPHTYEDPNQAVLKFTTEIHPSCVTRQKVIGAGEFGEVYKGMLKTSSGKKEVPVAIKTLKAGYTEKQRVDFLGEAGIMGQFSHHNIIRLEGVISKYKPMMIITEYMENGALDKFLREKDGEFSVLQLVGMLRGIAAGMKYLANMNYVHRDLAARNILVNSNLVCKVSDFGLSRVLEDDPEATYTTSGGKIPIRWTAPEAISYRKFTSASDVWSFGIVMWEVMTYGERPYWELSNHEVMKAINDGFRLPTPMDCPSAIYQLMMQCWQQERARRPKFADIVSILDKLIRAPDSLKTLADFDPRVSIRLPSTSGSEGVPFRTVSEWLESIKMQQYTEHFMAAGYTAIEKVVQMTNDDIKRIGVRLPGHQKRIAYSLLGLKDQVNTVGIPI
As to conditions: Protein EPHA2; average of three replicates. The procedure, abridged:
as §1

Test [3] has as its target T3, ~100 representative kinases (Homo sapiens, UniProt O95747).
T3 construct: Recombinant protein kinase domains with a concentration of 2 μM
The following applies: protein OSR1; average of three replicates. An outline of the steps: as §1

The target in test [4] is T4, ~100 representative kinases (Homo sapiens, UniProt Q16566).
T4 construct: Recombinant protein kinase domains with a concentration of 2 μM
T4 sequence (Q16566 1-473): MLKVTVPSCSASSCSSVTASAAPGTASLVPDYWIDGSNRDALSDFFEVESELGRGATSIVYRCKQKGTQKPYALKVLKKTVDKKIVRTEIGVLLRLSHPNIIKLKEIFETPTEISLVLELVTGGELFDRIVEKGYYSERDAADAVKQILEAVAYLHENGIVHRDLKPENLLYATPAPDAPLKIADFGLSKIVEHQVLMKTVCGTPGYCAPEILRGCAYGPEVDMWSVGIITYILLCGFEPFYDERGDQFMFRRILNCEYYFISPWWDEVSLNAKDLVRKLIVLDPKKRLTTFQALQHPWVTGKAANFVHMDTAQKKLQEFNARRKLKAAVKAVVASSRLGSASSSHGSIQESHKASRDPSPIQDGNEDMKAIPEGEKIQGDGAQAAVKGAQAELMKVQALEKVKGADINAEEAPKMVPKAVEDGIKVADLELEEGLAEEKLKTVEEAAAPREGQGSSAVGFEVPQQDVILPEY
As to conditions: Protein CAMK4; average of three replicates. An outline of the steps: as §1

Test [5] has as its target T5, ~100 representative kinases (Homo sapiens, UniProt Q9UPE1).
T5 construct: Recombinant protein kinase domains with a concentration of 2 μM
The following applies: Protein SRPK3; DSF; average of three replicates. The procedure, abridged: as §1

Test [6] has as its target T6, ~100 representative kinases (Homo sapiens, UniProt Q09013).
T6 construct: Recombinant protein kinase domains with a concentration of 2 μM
T6 sequence (Q09013 1-629): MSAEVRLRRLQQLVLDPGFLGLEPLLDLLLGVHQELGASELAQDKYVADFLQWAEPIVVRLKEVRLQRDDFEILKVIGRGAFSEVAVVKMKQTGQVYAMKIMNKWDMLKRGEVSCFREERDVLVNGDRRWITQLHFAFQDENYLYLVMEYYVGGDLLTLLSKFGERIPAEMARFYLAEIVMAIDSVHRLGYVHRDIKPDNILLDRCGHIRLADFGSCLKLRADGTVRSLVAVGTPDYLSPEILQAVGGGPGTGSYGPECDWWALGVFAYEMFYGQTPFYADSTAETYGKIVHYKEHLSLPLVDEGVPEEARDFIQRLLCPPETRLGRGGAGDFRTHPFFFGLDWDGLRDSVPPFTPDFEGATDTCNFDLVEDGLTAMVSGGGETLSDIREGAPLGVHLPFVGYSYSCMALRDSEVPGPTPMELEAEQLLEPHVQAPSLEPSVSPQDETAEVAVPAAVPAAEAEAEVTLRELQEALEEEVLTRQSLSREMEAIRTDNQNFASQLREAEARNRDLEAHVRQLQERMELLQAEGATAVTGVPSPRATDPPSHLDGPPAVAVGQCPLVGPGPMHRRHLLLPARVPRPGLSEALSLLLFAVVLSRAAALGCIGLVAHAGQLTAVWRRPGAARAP
As to conditions: Protein DMPK1; average of three replicates. An outline of the steps: as §1

The target of test [7] is T7, ~100 representative kinases (Homo sapiens, UniProt P28482).
T7 construct: Recombinant protein kinase domains with a concentration of 2 μM
T7 sequence (P28482 whole entry, the tested form may be a part): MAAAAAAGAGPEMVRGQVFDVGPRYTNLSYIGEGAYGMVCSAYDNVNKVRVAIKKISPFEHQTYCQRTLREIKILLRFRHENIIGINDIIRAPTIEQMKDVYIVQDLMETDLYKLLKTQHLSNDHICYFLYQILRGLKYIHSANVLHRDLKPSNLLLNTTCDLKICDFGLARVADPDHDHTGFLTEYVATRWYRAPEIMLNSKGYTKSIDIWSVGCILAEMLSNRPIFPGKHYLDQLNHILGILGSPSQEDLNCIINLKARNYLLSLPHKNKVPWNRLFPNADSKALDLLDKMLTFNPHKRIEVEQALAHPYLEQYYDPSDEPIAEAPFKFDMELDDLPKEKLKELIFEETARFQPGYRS
The following applies: protein MAPK1; average of three replicates. The procedure, abridged: as §1

Test [8] concerns the target T8, ~100 representative kinases (Homo sapiens, UniProt Q96L34).
T8 construct: Recombinant protein kinase domains with a concentration of 2 μM
T8 sequence (Q96L34 1-752): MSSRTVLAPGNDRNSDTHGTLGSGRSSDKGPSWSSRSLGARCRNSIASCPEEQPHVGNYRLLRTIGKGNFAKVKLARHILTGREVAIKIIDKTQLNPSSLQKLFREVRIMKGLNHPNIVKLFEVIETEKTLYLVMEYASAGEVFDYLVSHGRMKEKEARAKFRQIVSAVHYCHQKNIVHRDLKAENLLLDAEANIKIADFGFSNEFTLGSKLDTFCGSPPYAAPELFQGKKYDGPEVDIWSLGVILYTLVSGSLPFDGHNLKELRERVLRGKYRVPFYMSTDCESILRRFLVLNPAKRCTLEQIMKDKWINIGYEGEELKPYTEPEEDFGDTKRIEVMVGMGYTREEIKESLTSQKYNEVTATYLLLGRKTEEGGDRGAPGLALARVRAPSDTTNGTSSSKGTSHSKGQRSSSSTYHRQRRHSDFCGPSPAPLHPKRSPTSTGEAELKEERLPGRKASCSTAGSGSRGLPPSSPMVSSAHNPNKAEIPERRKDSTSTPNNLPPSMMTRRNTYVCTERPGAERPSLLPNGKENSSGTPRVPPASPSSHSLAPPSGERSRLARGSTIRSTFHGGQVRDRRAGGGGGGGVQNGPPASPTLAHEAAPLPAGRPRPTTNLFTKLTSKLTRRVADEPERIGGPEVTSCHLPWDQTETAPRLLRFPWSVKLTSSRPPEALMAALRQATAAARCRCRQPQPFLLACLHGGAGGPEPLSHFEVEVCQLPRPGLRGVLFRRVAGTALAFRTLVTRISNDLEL
As to conditions: protein MARK4; average of three replicates. An outline of the steps:
as §1

T5 sequence (Q9UPE1 whole entry, the tested form may be a part): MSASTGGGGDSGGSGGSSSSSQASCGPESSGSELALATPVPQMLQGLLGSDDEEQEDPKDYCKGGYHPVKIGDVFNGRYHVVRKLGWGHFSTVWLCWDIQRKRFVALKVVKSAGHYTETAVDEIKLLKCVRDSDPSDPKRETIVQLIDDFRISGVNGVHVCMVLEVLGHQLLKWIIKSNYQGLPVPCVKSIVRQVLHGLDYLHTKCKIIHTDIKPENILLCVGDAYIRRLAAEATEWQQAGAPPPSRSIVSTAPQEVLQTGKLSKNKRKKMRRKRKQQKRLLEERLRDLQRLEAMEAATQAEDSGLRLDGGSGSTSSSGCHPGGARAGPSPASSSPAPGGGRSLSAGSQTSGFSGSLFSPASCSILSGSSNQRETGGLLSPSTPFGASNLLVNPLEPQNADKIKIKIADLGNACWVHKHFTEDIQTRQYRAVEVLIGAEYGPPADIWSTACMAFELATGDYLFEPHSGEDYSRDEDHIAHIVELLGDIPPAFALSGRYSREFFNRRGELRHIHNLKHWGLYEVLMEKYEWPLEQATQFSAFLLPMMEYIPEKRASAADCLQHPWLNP
T1 sequence (O96013 whole entry, the tested form may be a part): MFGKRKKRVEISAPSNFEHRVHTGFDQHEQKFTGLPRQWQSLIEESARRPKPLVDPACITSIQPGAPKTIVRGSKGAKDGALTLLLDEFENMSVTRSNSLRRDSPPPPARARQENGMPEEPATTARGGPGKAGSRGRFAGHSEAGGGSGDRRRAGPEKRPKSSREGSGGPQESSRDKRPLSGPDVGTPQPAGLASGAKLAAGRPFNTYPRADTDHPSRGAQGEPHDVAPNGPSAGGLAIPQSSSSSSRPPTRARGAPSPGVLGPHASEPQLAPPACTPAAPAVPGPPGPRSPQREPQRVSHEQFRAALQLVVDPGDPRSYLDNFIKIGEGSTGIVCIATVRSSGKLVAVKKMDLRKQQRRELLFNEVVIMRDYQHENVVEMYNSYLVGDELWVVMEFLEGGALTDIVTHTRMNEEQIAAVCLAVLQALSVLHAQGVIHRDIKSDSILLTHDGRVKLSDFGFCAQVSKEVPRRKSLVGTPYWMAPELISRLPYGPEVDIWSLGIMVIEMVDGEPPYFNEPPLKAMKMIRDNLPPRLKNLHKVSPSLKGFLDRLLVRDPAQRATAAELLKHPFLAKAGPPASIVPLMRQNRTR
T3 sequence (O95747 whole entry, the tested form may be a part): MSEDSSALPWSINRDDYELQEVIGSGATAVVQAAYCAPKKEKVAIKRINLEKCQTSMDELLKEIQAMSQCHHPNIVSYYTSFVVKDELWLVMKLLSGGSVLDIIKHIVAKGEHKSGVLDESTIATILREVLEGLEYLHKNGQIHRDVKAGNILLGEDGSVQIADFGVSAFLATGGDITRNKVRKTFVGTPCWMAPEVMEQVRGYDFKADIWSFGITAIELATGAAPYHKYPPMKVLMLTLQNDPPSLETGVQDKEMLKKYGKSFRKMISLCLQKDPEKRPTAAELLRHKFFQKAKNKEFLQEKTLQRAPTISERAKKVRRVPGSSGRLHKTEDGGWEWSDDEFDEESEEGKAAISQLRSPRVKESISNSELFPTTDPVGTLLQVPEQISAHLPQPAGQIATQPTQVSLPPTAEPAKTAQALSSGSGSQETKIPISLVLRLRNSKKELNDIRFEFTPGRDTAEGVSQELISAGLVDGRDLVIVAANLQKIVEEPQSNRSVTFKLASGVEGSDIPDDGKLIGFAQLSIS

`CC(C)(C)c1cc(NC(=O)Nc2cccc(-c3c[nH]c4ncnc(N5CCOCC5)c34)c2)n(-c2ccc3ncccc3c2)n1` [Compound 28]: the dTm in test [1] is recorded as 0.80 K; in test [2], 14.41 K; in test [3], 4.85 K; in test [4] it was 3.69 K; in test [5] it was 9.26 K; in test [6], -2.53 K. Moreover, the values for the dTm in test [7] and in test [8] were 0.09 K and 4.38 K, respectively.

In the case of `Cc1ccc(-n2nc(C(C)(C)C)cc2NC(=O)Nc2cccc(-c3c[nH]c4ncnc(N5CCOCC5)c34)c2)cc1` [Compound 29], the dTm in test [1] is 1.80 K; in test [2], 10.91 K; in test [3] it was 0.52 K; in test [4] it was 2.94 K; in test [5], 6.09 K; in test [6], -2.09 K. The dTm in test [7] is given as -0.31 K; in test [8], 3.91 K.

Turning to `Cc1ccc(-n2nc(C(C)(C)C)cc2NC(=O)Nc2cccc(-c3c[nH]c4nc(Cl)nc(N5CCOCC5)c34)c2)cc1` [Compound 30], the dTm in test [1] is 0.13 K; in test [2] it was 3.08 K; in test [3] it was -1.12 K; in test [4], -1.02 K; in test [5], 3.14 K; in test [6], -0.04 K. Also, the dTm in test [7] was -0.99 K; in test [8], -1.19 K.

As to `CC(=O)N1CCN(c2nc(Cl)nc3[nH]cc(-c4cccc(NC(=O)Nc5cc(C(C)(C)C)nn5-c5ccc(C)cc5)c4)c23)CC1` [Compound 31], the dTm is on record as 0.48 K in test [1]; 4.11 K in test [2]; -2.10 K in test [3]; -0.77 K in test [4]; 3.85 K in test [5]; -0.66 K in test [6]. The results for the dTm in test [7] and in test [8] were -0.85 K and -0.53 K, respectively.

`CCSc1nc(NC)c2c(-c3cccc(NC(=O)Nc4cc(C(C)(C)C)nn4-c4ccc(C)cc4)c3)c[nH]c2n1` [Compound 32]: the dTm is 0.61 K in test [1]; 0.36 K in test [2]; -0.46 K in test [3]; 0.28 K in test [4]; 1.35 K in test [5]; 0.38 K in test [6]. For the same compound, the dTm in test [7] and in test [8] was 0.25 K throughout.

Consider `COc1cc(C(=O)N2CCOCC2)c(F)cc1Nc1nc(N(C)C)c2c(Cl)c[nH]c2n1` [Compound 36], for which the dTm is on record as -0.14 K in test [1]; -0.10 K in test [2]; 1.88 K in test [3]; 1.63 K in test [4]; 1.84 K in test [5]; 0.30 K in test [6]. The dTm in test [7] was 1.60 K; in test [8] it was -0.63 K.

In the case of `COc1cc(S(C)(=O)=O)ccc1Nc1nc(N(C)C)c2c(Cl)c[nH]c2n1` [Compound 37], the dTm is 0.22 K in test [1]; -0.56 K in test [2]; 1.40 K in test [3]; -0.60 K in test [4]; 0.46 K in test [5]; 0.0114 K in test [6]. Also, the values for the dTm in test [7] and in test [8] were 0.14 K and 0.42 K, respectively.

On to `CNC(=O)c1cc(Oc2ccc(NC(=O)Nc3cc(C(C)(C)C)nn3-c3ccc4ncccc4c3)c(F)c2)ccn1` [Rebastinib, reference compound], for which the dTm in test [1] is 4.23 K; in test [2], 10.76 K; in test [3], 1.75 K; in test [4], 1.22 K; in test [5], 9.62 K; in test [6], -0.79 K. The dTm was determined as 0.54 K in test [7] and 2.04 K in test [8].
